# Reference: US6723897B2, “Methods for controlling gibberellin levels” (Monsanto Technology, LLC, priority 1998, dated 2004)
# Columns and labels:
# [1] = tested on: wild-type soybean line A4922; test: Field trial of seed coating application rates, wild-type soybean
# Procedure: GA3, GA3-3-acetate, GA5, GA9, and GA12 are evaluated in further field trials. […] The objectives of these tests are: 1) to determine if seed coatings, as compared to imbibition, of GA compounds facilitate rescue of constitutively GA-deficient transgenic dwarf soybeans (transgenic lines 719−2 plus 719+17) without causing elongation of wild-type soybeans (line A4922), and 2) to determine the seed treatment rate ranges for each of the selected GA compounds that would provide rescue of constitutively GA-deficient transgenic dwarf soybeans (transgenic lines 719−2 plus 719+17) without causing elongation of wild-type soybeans (line A4922).
# Seeds are treated with GA3, GA5, GA9, GA12, and GA3-3-acetate at rates of 0, 0.1, 1, 10, and 100 μg/seed. These GA compounds are applied to the seeds using a Hege 11 seed treater (Hans-Ulrich Hege GmbH & Co., Waldenburg, Germany); 100% acetone is used as the carrier solvent. The amount of liquid introduced into the seed treater is six fluid ounces/100 lbs seed rate. In addition, GA12 is tested at 50 μg/seed. The untreated control (UTC) consisted of dry, untreated seeds. Seeds of constitutively GA-deficient transgenic dwarf soybean line 719 and wild-type A4922 are sown in both light and heavy soil. The planting depth is 0.5 to 1 inch (1.27 to 2.54 cm); watering is via drip irrigation. The experiment is carried out in three repetitions, using 25 seeds/plot (one five foot (152.4 cm) long row) for line 719, and 75 seeds/plot (two eight foot (243.8 cm) rows) for line A4922. Observations included total emergence, number of dwarfs not rescued, uniformity in plant height, average plant height, visual notes, and digital photos.
# In all the experiments reported in Tables 17-24, treatments are replicated three times in a randomized block design. Data are analyzed using LSD (least significant difference) 0.05 probability using the PRM 5.0 Statistical Analysis Program (SAS Institute, North Carolina).
# [2] = tested on: non-transgenic soybean line A4922; test: Field trial of seed coatings under soil compaction / different soils, wild-type soybean; type: in vivo, Glycine max; conditions: for Count (emergence) / Height (total plant height): A4922
# Procedure: The second trial (data reported in Tables 22-24) tested the precursors under conditions of soil compaction.
# As noted above, the second trial tested the noted precursors under conditions of soil compaction. These experiments are performed in the same manner as in the first trial, except that the soil is compacted with an all-terrain vehicle.
# “Height” equals total plant height in cm.
# [3] = Heavy soil - Loose, target rate 0.5 μg/seed, Table 23
# [4] = Heavy soil - Loose, target rate 2.0 μg/seed, Table 23
# [5] = Heavy soil - Loose, target rate 4.0 μg/seed, Table 23
# [6] = Heavy soil - compacted, target rate 0.5 μg/seed, Table 23
# [7] = Heavy soil - compacted, target rate 2.0 μg/seed, Table 23
# [8] = Heavy soil - compacted, target rate 4.0 μg/seed, Table 23
# [9] = Heavy soil - loose, target rate 0.5 μg/seed, Table 22
# [10] = Heavy soil - loose, target rate 2.0 μg/seed, Table 22
# [11] = Light soil - Compacted, target rate 0.5 μg/seed, Table 22
# [12] = Light soil - Compacted, target rate 2.0 μg/seed, Table 22
# [13] = Light soil - Loose, target rate 0.5 μg/seed, Table 24
# [14] = Light soil - Loose, target rate 2.0 μg/seed, Table 24
# [15] = Light soil - Loose, target rate 4.0 μg/seed, Table 24
# [16] = Light soil - compacted, target rate 0.5 μg/seed, Table 24
# [17] = Light soil - compacted, target rate 2.0 μg/seed, Table 24
# [18] = Light soil - compacted, target rate 4.0 μg/seed, Table 24
smiles,measurement,setting,value
C=C1C[C@]23C[C@@]1(O)CC[C@H]2[C@@]12CC=C[C@@](C)(C(=O)O1)[C@H]2[C@@H]3C(=O)O [GA5],"A4922 Height, cm, Heavy soil",[1]; 0.1 μg compound per seed,4.3 ghi cm
same,"A4922 Height, cm, Light soil",[1]; 0.1 μg compound per seed,6.0 fgh cm
same,"No. A4922 Emerged, Heavy soil",[1]; 0.1 μg compound per seed,32.3 b-g
same,"No. A4922 Emerged, Light soil",[1]; 0.1 μg compound per seed,51.7 bcd
same,"A4922 Height, cm, Heavy soil",[1]; 1 μg compound per seed,7.0 ef cm
same,"A4922 Height, cm, Light soil",[1]; 1 μg compound per seed,7.3 fg·cm
same,"No. A4922 Emerged, Heavy soil",[1]; 1 μg compound per seed,37.3 b-f
same,"No. A4922 Emerged, Light soil",[1]; 1 μg compound per seed,47.3 c-g
same,"A4922 Height, cm, Heavy soil",[1]; 10 μg compound per seed,17.3 b cm
same,"A4922 Height, cm, Light soil",[1]; 10 μg compound per seed,16.3 c cm
same,"No. A4922 Emerged, Heavy soil",[1]; 10 μg compound per seed,32.7 b-g
same,"No. A4922 Emerged, Light soil",[1]; 10 μg compound per seed,45.7 c-h
same,"A4922 Height, cm, Heavy soil",[1]; 100 μg compound per seed,22.3 a cm
same,"A4922 Height, cm, Light soil",[1]; 100 μg compound per seed,29.7 a cm
same,"No. A4922 Emerged, Heavy soil",[1]; 100 μg compound per seed,38.3 b-e
same,"No. A4922 Emerged, Light soil",[1]; 100 μg compound per seed,46.7 c-g
same,Count (emergence),[2]; [3],32.0 abc
same,Height (total plant height),[2]; [3],5.3 g·cm·days
same,Count (emergence),[2]; [4],24.7 de
same,Height (total plant height),[2]; [4],6.7 bcd cm
same,Count (emergence),[2]; [5],26.7 b-e
same,Height (total plant height),[2]; [5],9.0 a cm
same,Count (emergence),[2]; [6],13.7 abc
same,Height (total plant height),[2]; [6],4.7 cde cm
same,Count (emergence),[2]; [7],9.0 bcd
same,Height (total plant height),[2]; [7],6.7 ab cm
same,Count (emergence),[2]; [8],6.7 cde
same,Height (total plant height),[2]; [8],6.7 ab cm
same,Count (emergence),[2]; [9],32 abc
same,Height (total plant height),[2]; [9],5.3 g·cm·days
same,Count (emergence),[2]; [10],25 cde
same,Height (total plant height),[2]; [10],6.7 bcd cm
same,Count (emergence),[2]; [11],37 abc
same,Height (total plant height),[2]; [11],6.7 cm·days
same,Count (emergence),[2]; [12],22 de
same,Height (total plant height),[2]; [12],9.0 c cm
same,Count (emergence),[2]; [13],44.7 ab
same,Height (total plant height),[2]; [13],6.0 fg·cm
same,Count (emergence),[2]; [14],41.0 abc
same,Height (total plant height),[2]; [14],10.0 bc cm
same,Count (emergence),[2]; [15],43.3 abc
same,Height (total plant height),[2]; [15],12.7 a cm
same,Count (emergence),[2]; [16],36.7 abc
same,Height (total plant height),[2]; [16],6.7 cm·days
same,Count (emergence),[2]; [17],21.7 de
same,Height (total plant height),[2]; [17],9.0 c cm
same,Count (emergence),[2]; [18],18.7 def
same,Height (total plant height),[2]; [18],11.7 a cm
same,plant height dose/response in wild-type line A4922 (FIG. 40),"[2]; ten days after planting, compacted soil",dose/response curves similar to that of GA3
C=C1C[C@]23C[C@@]1(O)CC[C@H]2[C@@]12C=C[C@H](OC(C)=O)[C@@](C)(C(=O)O1)[C@H]2[C@@H]3C(=O)O [GA3-3-acetate],Count (emergence),[2]; [3],29.0 a-d
same,Height (total plant height),[2]; [3],5.3 g·cm·days
same,Count (emergence),[2]; [4],15.3 f
same,Height (total plant height),[2]; [4],6.0 c-f cm
same,Count (emergence),[2]; [5],7
same,Height (total plant height),[2]; [5],8.0 ab cm
same,Count (emergence),[2]; [6],4.0 de
same,Height (total plant height),[2]; [6],5.3 b-e cm
same,Count (emergence),[2]; [7],6.0 cde
same,Height (total plant height),[2]; [7],5.7 bcd cm
same,Count (emergence),[2]; [8],0 e
same,Count (emergence),[2]; [9],29 a-d
same,Height (total plant height),[2]; [9],5.3 g·cm·days
same,Count (emergence),[2]; [10],15 f
same,Height (total plant height),[2]; [10],6.0 c-f cm
same,Count (emergence),[2]; [11],28 bcd
same,Height (total plant height),[2]; [11],6.3 cm·days
same,Count (emergence),[2]; [12],18 def
same,Height (total plant height),[2]; [12],8.7 c cm
same,Count (emergence),[2]; [13],44.3 abc
same,Height (total plant height),[2]; [13],6.3 f cm
same,Count (emergence),[2]; [14],42.0 abc
same,Height (total plant height),[2]; [14],9.7 bc cm
same,Count (emergence),[2]; [15],42.3 abc
same,Height (total plant height),[2]; [15],10.3 b cm
same,Count (emergence),[2]; [16],27.7 cd
same,Height (total plant height),[2]; [16],6.3 cm·days
same,Count (emergence),[2]; [17],18.0 def
same,Height (total plant height),[2]; [17],8.7 c cm
same,Count (emergence),[2]; [18],22.7 dc
same,Height (total plant height),[2]; [18],11.0 ab cm
same,plant height dose/response in wild-type line A4922 (FIG. 40),[2]; in vivo,dose/response curves similar to that of GA3
